Where two headings read alike, the source gives them in different places. Each block holds one compound with its values, some of them ahead of it.
Assays:
3D7^WT = test: [3H]-hypoxanthine incorporation assay; format: cell-based; conditions: Plasmodium falciparum, 3D7; 72-h assay; mean±s.d.; read-out: 3D7^WT IC50
Description: ^[a] 72-h [^3H] hypoxanthhine incorporation assay; Data is expressed as mean±s.d.. The assay was performed in three independent biological experiments, each in biological duplicates.
(§1) P. falciparum asexual blood stage parasites were cultured in human red blood cells (RBC, Blutspende SRK, Zurich) at a hematocrit of 5% in RPMI 1640 medium. The RPMI 1640 medium (ThermoFisher Scientific #51800−043) was supplemented with the following: 24 mM NaHCO3 (pH 7.3, Sigma-Aldrich #31437−500G-R), 25 mM Hepes (Sigma-Aldrich #H4034−500G), 0.36 mM hypoxanthine (Sigma-Aldrich # H9377−25G), 100 µg mL^-1 neomycin (Sigma-Aldrich #N6386−100G) and 0.5% Albumax II (Thermo Fisher #11021−045). Additionally, 2 mM choline chloride (279 mg/L, Sigma-Aldrich #C7527−100G) was added to the culture to block the induction of sexual commitment as described. ^[31^] The RPMI 1640 medium and components were dissolved in water (Milli-Q purified), stirred for at least 3 h, and then sterile filtered (0.22 μm pore size) with a bottle top filter (Corning # 431118). Parasite cultures were maintained in an atmosphere of 3% O2, 4% CO2, and 93% N2 in air-tight chambers at 37 °C. The [^3H]-hypoxanthine incorporation assay was used to test compound activity in the specific parasite lines as described.^[32^] Briefly, compounds were dissolved in DMSO (10 mM) and diluted in a hypoxanthine-free culture medium. A limiting dilution was performed over a 64-fold range (6-step twofold dilution) in a 96-well plate in duplicates. For every starting concentration, a limiting dilution was performed over a 64-fold range (6-step twofold dilution) in a 96-well plate in two biological duplicates. Parasites were added at 100 µL to each well containing the compound to obtain a final parasitemia of 0.3% and haematocrit of 1.25%. The plates were incubated for 48 h before 0.25 µCi of [^3H]-hypoxanthine was added per well for an additional 24 h. Parasites were harvested on a glass-fiber filter with a Microbeta FilterMate cell harvester (Perkin Elmer, Waltham, USA) and radioactivity was counted using a MicroBeta2 liquid scintillation counter (Perkin Elmer, Waltham, US). The results were recorded, processed by subtraction of the mean background signal obtained from the uninfected RBC controls and expressed as percentage of untreated controls. The fifty percent inhibitory concentration (IC50) was calculated by using nonlinear, four parameter (variable slope) curve fitting as described ^[33^] after importing into GraphPad Prism (version 8.3.0).

P. falciparum Dd2 = test: [3H]-hypoxanthine incorporation assay; format: cell-based, Plasmodium falciparum; conditions: Plasmodium falciparum, DD2, 72 h
Description: (§2) ^[a]72-h [^3H] hypoxanthhine incorporation assay. Data is expressed as mean±s.d..
as §1

[1] = test system: Dd2 Fosmidomycin (Dd2 + pfdxr); test: [3H]-hypoxanthine incorporation assay; format: cell-based, Plasmodium falciparum; conditions: Plasmodium falciparum, DD2, 72 h
Description: as §2, §1

[2] = test system: Dd2 MMV390048 (Dd2 + pfpI4k); test: [3H]-hypoxanthine incorporation assay; format: cell-based, Plasmodium falciparum; conditions: Plasmodium falciparum, DD2, 72 h
Description: as §2, §1

[3] = test system: Dd2 DSM265 (Dd2 + pfdhodh); test: [3H]-hypoxanthine incorporation assay; format: cell-based, Plasmodium falciparum; conditions: Plasmodium falciparum, 72 h
Description: as §2, §1

[4] = test system: Dd2 ELQ300 (Dd2 + pfcytb); test: [3H]-hypoxanthine incorporation assay; format: cell-based, Plasmodium falciparum; conditions: Plasmodium falciparum, DD2, 72 h
Description: as §2, §1

[5] = test system: Dd2 NITD609 (Dd2 + pfatp4); test: [3H]-hypoxanthine incorporation assay; format: cell-based, Plasmodium falciparum; conditions: Plasmodium falciparum, DD2, 72 h
Description: as §2, §1

[6] = test system: Dd2 DDD107458 (Dd2 + pfeEF2); test: [3H]-hypoxanthine incorporation assay; format: cell-based, Plasmodium falciparum; conditions: Plasmodium falciparum, DD2, 72 h
Description: as §2, §1

P. falciparum K1 = test: [3H]-hypoxanthine incorporation assay; format: cell-based, Plasmodium falciparum; conditions: Plasmodium falciparum; K1; 72-h assay; mean±s.d.; read-out: IC50
Description: as §2, §1

[7] = test system: Dd2 GNF156 (Dd2 + pfcarl); test: [3H]-hypoxanthine incorporation assay; format: cell-based, Plasmodium falciparum; conditions: Plasmodium falciparum, DD2, 72 h
Description: as §2, §1

[8] = test system: P. falciparum NF54 strain; test: [3H]-hypoxanthine incorporation assay, asexual blood stage; format: cell-based, Plasmodium falciparum; conditions: Plasmodium falciparum
Description: as §1, with “The results were recorded, processed by subtraction of the mean background signal obtained from the uninfected RBC controls and expressed as percentage of untreated controls.” left out

Dd2b2^31-R1.2 = test: [3H]-hypoxanthine incorporation assay; format: cell-based, Plasmodium falciparum; conditions: Plasmodium falciparum, read-out: mean IC50 value ± s.d.
Description: as §1, with “The results were recorded, processed by subtraction of the mean background signal obtained from the uninfected RBC controls and expressed as percentage of untreated controls.” left out
(§3) 31 was used for resistance selection studies using the strain Dd2b2 (kindly provided by David Fidock). Resistance selection was done as described in ^[34^]. As summarized in Table S3, an initial inoculum of 2 x 10^9 asexual blood stage parasites (at 2-2.5% parasitemia) were cultured in three independent flasks. […] Cloning via limiting dilution was performed to obtain resistant clones for further characterization as described in section 2.2.5.

Dd2b2^WT = test: [3H]-hypoxanthine incorporation assay; format: cell-based, Plasmodium falciparum; conditions: Plasmodium falciparum, 72 h, read-out: Parent (Dd2b2^WT) IC50
Description: as §1, with “The results were recorded, processed by subtraction of the mean background signal obtained from the uninfected RBC controls and expressed as percentage of untreated controls.” left out
as §3

Dd2b2^31-R3.1 = test: [3H]-hypoxanthine incorporation assay; format: cell-based, Plasmodium falciparum; conditions: Plasmodium falciparum, read-out: mean IC50 value ± s.d.
Description: as §1, with “The results were recorded, processed by subtraction of the mean background signal obtained from the uninfected RBC controls and expressed as percentage of untreated controls.” left out
as §3

Dd2b2^31-R1.1 = test: [3H]-hypoxanthine incorporation assay; format: cell-based, Plasmodium falciparum; conditions: Plasmodium falciparum, read-out: mean IC50 value ± s.d.
Description: as §1, with “The results were recorded, processed by subtraction of the mean background signal obtained from the uninfected RBC controls and expressed as percentage of untreated controls.” left out
as §3

Dd2b2^31-R2.1 = test: [3H]-hypoxanthine incorporation assay; format: cell-based, Plasmodium falciparum; conditions: Plasmodium falciparum, read-out: mean IC50 value ± s.d.
Description: as §1, with “The results were recorded, processed by subtraction of the mean background signal obtained from the uninfected RBC controls and expressed as percentage of untreated controls.” left out
as §3

PfIspD = PfIspD (Plasmodium falciparum, UniProt W7KNE8); test: PfIspD inhibition; format: biochemical; conditions: mean ± s.d.
PfIspD, sequence (W7KNE8 entry or part of it): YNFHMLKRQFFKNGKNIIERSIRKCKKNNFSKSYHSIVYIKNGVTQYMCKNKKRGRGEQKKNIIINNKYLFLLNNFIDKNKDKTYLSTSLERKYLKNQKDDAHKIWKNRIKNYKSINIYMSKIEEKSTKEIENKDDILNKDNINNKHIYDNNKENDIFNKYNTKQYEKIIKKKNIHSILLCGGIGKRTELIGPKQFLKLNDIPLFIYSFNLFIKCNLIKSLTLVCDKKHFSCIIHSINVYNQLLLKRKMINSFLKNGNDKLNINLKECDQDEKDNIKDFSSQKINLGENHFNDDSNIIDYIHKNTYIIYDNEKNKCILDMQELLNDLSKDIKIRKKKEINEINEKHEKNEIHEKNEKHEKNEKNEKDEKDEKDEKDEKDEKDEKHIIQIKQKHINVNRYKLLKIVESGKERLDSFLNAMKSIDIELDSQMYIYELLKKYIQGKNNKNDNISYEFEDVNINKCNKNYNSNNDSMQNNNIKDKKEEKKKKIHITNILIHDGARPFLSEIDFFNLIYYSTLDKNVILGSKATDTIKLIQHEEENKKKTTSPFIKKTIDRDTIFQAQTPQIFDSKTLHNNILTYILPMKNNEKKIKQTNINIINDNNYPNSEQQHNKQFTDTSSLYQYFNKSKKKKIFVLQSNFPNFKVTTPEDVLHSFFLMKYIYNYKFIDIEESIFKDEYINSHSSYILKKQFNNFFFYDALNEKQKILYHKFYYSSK

[9] = test system: mRNA translation in NF54 trophozoite-stage parasites; test: Surface sensing of translation (SUnSET) assay; format: cell-based, Plasmodium falciparum; conditions: trophozoites 30–35 hpi; 31 at 3x, 50x, 100x IC50; 34 and pyrimethamine at 3x IC50
Description: To confirm the role of 31 as a translation inhibitor, the surface sensing of translation (SUnSET) assay was employed. This involves incubating the culture with a translation inhibitor, puromycin, a structural analogue of aminoacyl tRNA. Puromycin is incorporated in the nascent polypeptide chain and prevents further elongation. When puromcyin is used in sub‐lethal concentrations, incorporation of puromycin in neosynthesized protein correlates with the levels of mRNA translation (Figure 3c, lane2).^[ [27] ^] […] This trend was further confirmed by the quantified western blot signals (Figures 3d and S4C) that are consistent with the iSPP profiling results.
SUnSET: The SUnSET assay was done as described in. ^[27^]Tightly synchronized NF54 wild type parasites were treated with the compounds for 4h at 30-35 hpi (trophozoite stage). The following compounds and amounts used were: cycloheximide (3xIC50, 1,2 µM; Calbiochem), pyrimethamine (3xIC50, 21 nM; MedChemExpress), 34 (3xIC50, 12 µM), and 31 (3xIC50, 12 nM; 50xIC50, 200 nM; 100xIC50, 400 nM). Parasites were incubated with 1 µg mL^-1 (Sigma P8833) for 1 h at 37 °C and saponin lysis was performed.
Saponin lysis and Western blot: Saponin lysis was done on infected RBC at ~5% parasitemia to lyse erythrocytes. Parasite cultures were centrifuged at 1,200 g for 5 min at room temperature. Once the supernatant was discarded, 10 volumes of ice-cold 0.1% (w/v) saponin (Calbiochem 558255, dissolved in PBS, and filtered with 0,22) was added, incubated on ice for 10 min and centrifuged for 2,272 g for 15 min at 4 °C. […] The membrane was washed 3 times in PBS-T (3 min incubation in each washing step) and the signal was detected using the chemiluminescent substrate SuperSignal West Pico Plus (Thermo Scientific, REF 34580) and the imaging system Vilber Fusion FX7 Edge 17.10 SN. Quantification of Western blot signal was done by measuring the integrated density of each lane using ImageJ analysis software (version 1.54p). […]

SMILES: C[C@H]1[C@H](OC(=O)CCC(=O)O)O[C@@H]2O[C@@]3(C)CC[C@H]4[C@H](C)CC[C@@H]1[C@@]24OO3 [Artesunate, artesunate, reference compound]
IC50 (3D7^WT): 0.6 ± 0.1 nM
IC50 (P. falciparum Dd2): 0.3 ± 0.2 nM
IC50 [1]: 0.2 ± 0.01 nM
IC50 [2]: 0.3 ± 0.1 nM
IC50 [3]: 0.2 ± 0.01 nM
IC50 [4]: 0.2 ± 0.01 nM
IC50 [5]: 0.2 ± 0.01 nM
IC50 [6]: 0.2 ± 0.2 nM
IC50 (P. falciparum K1): 0.2 ± 0.01 nM
IC50 [7]: 0.2 ± 0.02 nM
IC50 ([8]; NF54, 72 h, Table S2, NF54 sensitive strain, 72-h assay, mean±s.d., read-out: IC50): 0.4 ± 0.07 nM
IC50 (Dd2b2^31-R1.2): 2.2 ± 0.6 nM
IC50 (Dd2b2^WT): 0.5 ± 0.1 nM
IC50 (Dd2b2^31-R3.1): 1.2 ± 0.6 nM
IC50 (Dd2b2^31-R1.1): 1.6 ± 0.3 nM
IC50 (Dd2b2^31-R2.1): 2.6 ± 1.5 nM

IC50 ([8]; NF54, asexual blood stage, mean ± s.d., read-out: PfNF54 IC50 ± s.d.): 592 ± 77.6 nM
IC50 (PfIspD): 15000 ± 4000 nM
SMILES: O=C(Nc1cc(S(=O)(=O)N2CCCC2)ccc1O)c1cccc(Oc2ccccc2)c1 [Compound 1, N-(2-Hydroxy-5-(pyrrolidin-1-ylsulfonyl)phenyl)-3-phenoxybenzamide]

SMILES: CCc1nc(N)nc(N)c1-c1ccc(Cl)cc1 [Pyrimethamine, reference compound]
mRNA translation (puromycin incorporation) [9]: did not reduce mRNA translation
